According to article PMC6148764, “Consensus design for improved thermostability of lipoxygenase from Anabaena sp. PCC 7120” (BMC Biotechnology, 2018):

Tests used:
Test in all cases: hydroperoxide formation at […] nm, spectrophotometer, initial rate
Format in all cases: biochemical
Settings in all cases: Tris-HCl pH 9.0, 30 °C
Ana-rLOX [1] = molecular target: T1, Ana-rLOX (Nostoc sp. PCC 7120 = FACHB-418, UniProt Q8YK97, N448D/S755Y)
T1 construct: gene all8020

Ana-rLOX [2] = molecular target: T2, Ana-rLOX (Nostoc sp. PCC 7120 = FACHB-418, UniProt Q8YK97, G578A)
T2 construct: gene all8020
T2 sequence (Q8YK97 319-773 G578A): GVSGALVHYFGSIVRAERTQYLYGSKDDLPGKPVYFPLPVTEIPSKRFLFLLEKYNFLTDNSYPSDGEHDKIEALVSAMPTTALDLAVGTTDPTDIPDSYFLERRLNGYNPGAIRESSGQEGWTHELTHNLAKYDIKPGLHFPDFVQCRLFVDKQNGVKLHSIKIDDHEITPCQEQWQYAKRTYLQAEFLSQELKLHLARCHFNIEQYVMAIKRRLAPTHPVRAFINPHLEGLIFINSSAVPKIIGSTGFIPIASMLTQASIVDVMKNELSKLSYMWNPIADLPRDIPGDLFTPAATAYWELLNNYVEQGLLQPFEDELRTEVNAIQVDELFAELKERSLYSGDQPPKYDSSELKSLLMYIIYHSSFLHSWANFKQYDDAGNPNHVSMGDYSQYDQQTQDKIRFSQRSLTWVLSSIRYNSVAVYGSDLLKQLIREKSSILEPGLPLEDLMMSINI

Ana-rLOX [3] = molecular target: T3, Ana-rLOX (Nostoc sp. PCC 7120 = FACHB-418, UniProt Q8YK97, N448D/G578Q)
T3 construct: gene all8020
T3 sequence (Q8YK97 319-773 N448D/G578Q): as the sequence (Q8YK97 319-773 G578A) above, with N130D, A260Q counted along it

Ana-rLOX [4] = molecular target: T4, Ana-rLOX (Nostoc sp. PCC 7120 = FACHB-418, UniProt Q8YK97)
T4 construct: gene all8020
T4 sequence (Q8YK97 319-773 limits assumed): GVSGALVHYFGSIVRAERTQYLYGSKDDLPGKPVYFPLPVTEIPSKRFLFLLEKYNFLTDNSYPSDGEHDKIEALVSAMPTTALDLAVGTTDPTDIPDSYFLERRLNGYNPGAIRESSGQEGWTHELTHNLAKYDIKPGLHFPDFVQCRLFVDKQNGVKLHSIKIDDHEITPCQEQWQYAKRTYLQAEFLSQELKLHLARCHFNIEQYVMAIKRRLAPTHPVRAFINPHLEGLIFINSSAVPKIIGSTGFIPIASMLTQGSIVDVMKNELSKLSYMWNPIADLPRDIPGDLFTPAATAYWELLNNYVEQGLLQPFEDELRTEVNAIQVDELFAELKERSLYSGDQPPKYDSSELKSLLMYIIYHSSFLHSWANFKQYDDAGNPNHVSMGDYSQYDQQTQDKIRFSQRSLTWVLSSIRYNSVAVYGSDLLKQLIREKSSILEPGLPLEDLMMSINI

Ana-rLOX [5] = molecular target: T5, Ana-rLOX (Nostoc sp. PCC 7120 = FACHB-418, UniProt Q8YK97, S755T)
T5 construct: gene all8020
T5 sequence (Q8YK97 319-773 S755T): as the sequence (Q8YK97 319-773 G578A) above, with A260G, S437T counted along it

Ana-rLOX [6] = molecular target: T6, Ana-rLOX (Nostoc sp. PCC 7120 = FACHB-418, UniProt Q8YK97, N448D)
T6 construct: gene all8020
T6 sequence (Q8YK97 319-773 N448D): as the sequence (Q8YK97 319-773 G578A) above, with N130D, A260G counted along it

T1 sequence (Q8YK97 319-773 N448D/S755Y): as the sequence (Q8YK97 319-773 G578A) above, with N130D, A260G, S437Y counted along it

Km (Ana-rLOX [1]): 15 ± 1.1 µM | Km (Ana-rLOX [2]): 34 ± 2.3 µM | Km (Ana-rLOX [3]): 13 ± 1 µM | Km (Ana-rLOX [4]): 56 ± 4 µM | Km (Ana-rLOX [5]): 56 ± 4.7 µM | Km (Ana-rLOX [6]): 30 ± 2.6 µM
SMILES: CCCCC/C=C\C/C=C\CCCCCCCC(=O)O [linoleic acid]
